What was measured:
DMT1 = conditions: HepG2 cells, 250 μM manganese for 4 h; expression without manganese normalized to 1; mean±SE, N=4
Procedure: (§1) Cells were treated with 0 or 250 μM manganese for 4 h, and gene expression was analyzed by qRT-PCR. For each transcript, expression without manganese treatment was normalized to 1. N=4. Data are mean±SE.
(§2) Cell culture. HepG2 cells were grown in Eagle's modified essential medium (MEM; Corning) with 10% fetal bovine serum (Atlanta Biologicals), 100 IU/ml penicillin (Corning), and 100 μg/ml streptomycin (Corning). 293T cells were maintained in Dulbecco's modified essential medium/F12 (Thermo) supplemented with 10% fetal bovine serum, penicillin (100 IU/ml), and streptomycin (100 μg/ml). Human primary hepatocytes were purchased from XenoTech (catalog #HPCH10+) and cultured according to protocols provided by the supplier.
(§3) manganese and drug treatments in cell culture. Cells were treated with indicated levels of manganese as manganeseCl2.4H2O (Fisher). Vehicle for manganese treatment was water. Prolyl hydroxylase inhibitors roxadustat (Caymen), vadadustat, and molidustat (both APE-Bio); the HIFα inhibitor LW6 (Selleckchem); the proteasomal inhibitor MG132 (Sigma); and the transcription inhibitor actinomycin D (Sigma) were dissolved in DMSO. […] Vehicle treatment for all drugs was DMSO.
(§4) Quantitative RT-PCR assays. RNA extraction from HepG2 cells and mouse tissue, reverse transcription to cDNA, and qRT-PCR analyses were performed as described by us previously (47, 50). For analyses of mouse brain samples, a part of the midbrain, including the basal ganglia, was used. Transcript levels were quantified using the ΔΔCT method with 18S (in mice) or TBP (in HepG2 cells) as the internal control, also as described by us previously (47, 50).

FPN = conditions: HepG2 cells, 250 μM manganese for 4 h; expression without manganese normalized to 1; mean±SE, N=4
Procedure: as §1, §2, §3, §4

SLC39A14 [1] = conditions: HepG2 cells, 250 μM manganese for 4 h; expression without manganese normalized to 1; mean±SE, N=4
Procedure: as §1, §2, §3, §4

SLC39A8 [2] = conditions: HepG2 cells, 250 μM manganese for 4 h; expression without manganese normalized to 1; mean±SE, N=4
Procedure: as §1, §2, §3, §4

SPCA1 = conditions: HepG2 cells, 250 μM manganese for 4 h; expression without manganese normalized to 1; mean±SE, N=4
Procedure: as §1, §2, §3, §4

SLC30A10 promoter = type: cell-based, human
Description: A luciferase reporter plasmid containing the proximal promoter of human SLC30A10 has been previously described and was a gift of Dr. Ruth Valentine (100). The promoter fragment corresponding to bases −679 to +211 relative to the start of transcription was sub-cloned into the Xho1 and SpeI sites of pRRLSIN.cPPTLuciferase.WPRE vector (Addgene, #69251), which is a luciferase vector for lentivirus infections. Deletion mutants were generated using the loop-out modification of the QuikChange protocol.
Lentiviral infections. Stable cells were generated by lentivirus infection essentially as described by us previously (49, 98). Briefly, lentivirus was produced in HEK293T cells by co-transfecting transfer plasmids described above with plasmids coding for a third generation packing system that is routinely used (pRSV-Rev, pRRE, and pCMV-VSVG) (49, 98). Viral supernatants were collected 40-48 h post-transfection. HepG2 cells for infection were plated in a 60 mm dish 24 h before infection so that cells reached a confluence of 30% on the day of infection. Collected viral supernatants were filtered through a 0.45-μm polyvinylidene difluoride filter, and cells were incubated with a 1:2 dilution of viral supernatant containing 5 μg/mL Polybrene (Santa Cruz). […]

SLC39A14 [3] = conditions: oral manganese ~15 mg/kg daily from birth until 8 weeks
Procedure: (§5) A well-characterized drinking water-based manganese exposure regimen was used to model human environmental manganese exposure by providing mice with ˜50 mg manganeseCl2.4H2O/kg body weight daily (˜15 mg absolute manganese/kg per day) from birth until 8 weeks of age. This, and related similar, dosing regimens: 1) approximate the increase in manganese exposure in humans consuming well water contaminated with 1.5 mg manganese/L, which is the median well water concentration associated with neurological deficits in children; 2) increase brain manganese levels by ˜2-3 fold, similar to human patients; 3) produce measurable neurobehavioral deficits without overt toxicity; and 4) model exposure to manganese in developmentally-sensitive early-life and adolescent periods (11). Pre-weaning manganese was delivered by pipette directly into the mouth, and post-weaning manganese was delivered in drinking water using procedures described in detail in ref. (11). In brief, pre-weaning dosing was adjusted to each animal's body weight. For this, a stock solution of 69.2 mg absolute manganese/ml prepared in milliQ water was diluted in milliQ water containing 2.5% (wt/vol) of the natural sweetener Stevia (to facilitate intake by pups), and the required manganese amount (0.2 μl manganese stock/g body weight) was delivered in a dose of ˜5-10 μl/animal. For post-weaning exposure, a 27.7 mg absolute manganese/ml stock solution was prepared in water and diluted to 0.069 mg absolute manganese/ml in drinking water, which provided mice with ˜15 mg absolute manganese/kg per day based on a daily water intake of ˜2-5 ml/mouse depending on age.
(§6) Animals were euthanized using carbon dioxide and tissue dissected for qRT-PCR or ICPMS analyses as described by us previously (50).
as §4

SLC39A8 [4] = conditions: oral manganese ~15 mg/kg daily from birth until 8 weeks
Procedure: as §5, §6, §4

C57BL/6J mice = conditions: C57BL/6J mice, open field 6-15 min interval, ~30 mg manganese/kg daily in drinking water, 4 weeks
Procedure: To assay for the protective effect of roxadustat, animals were exposed to roxadustat or vehicle with or without manganese in drinking water from ˜4 weeks of age. Treatment lasted for 4 weeks from initiation. Roxadustat (Selleckchem) was prepared as a 50 mg/ml stock solution in DMSO, then diluted to 1 mg/ml in sterile phosphate buffered saline (PBS), and delivered by daily i.p. injection at 10 mg/kg. Vehicle was 2% DMSO in PBS. For this experiment, drinking water manganese levels were adjusted to 0.138 mg absolute manganese/ml so that animals received ˜30 mg absolute manganese/kg daily. A higher level of manganese was used because exposure was initiated after weaning, which was necessary because daily i.p. injections for roxadustat delivery were not possible in the pre-weaning period.
Open-field assays for neurobehavior assessment. Open-field analyses were performed as described in a recent publication (51).

[5] = system: prolyl hydroxylase domain 2 (PHD2); conditions: HepG2 cells, 250 μM manganese
Procedure: as §4

O.O.O.O.[Cl][Mn][Cl] [manganese, manganeseCl2.4H2O]
Relative expression after manganese, DMT1 transcript (DMT1): 0.92 ± 0.03 | Relative expression after manganese, FPN transcript (FPN): 0.77 ± 0.21 | Relative expression after manganese, SLC39A14 transcript (SLC39A14 [1]): 0.71 ± 0.02 | Relative expression after manganese, SLC39A8 transcript (SLC39A8 [2]): 0.87 ± 0.09 | Relative expression after manganese, SPCA1 transcript (SPCA1): 1.00 ± 0.05 | Luciferase activity after manganese (SLC30A10 promoter): increased | Hepatic and brain SLC39A14 levels (SLC39A14 [3]; 129S4/SvJaeJ mice): elevated | Intestinal SLC39A14 levels (SLC39A14 [3]; C57BL/6J mice): enhanced | Hepatic and brain SLC39A8 levels (SLC39A8 [4]; 129S4/SvJaeJ mice): elevated | Intestinal SLC39A8 levels (SLC39A8 [4]; either strain): did not change | Vertical (rearing) movement versus vehicle-treated controls, manganese-only (C57BL/6J mice): reduced | PHD2 levels in manganese-treated cells [5]: elevated

Source: patent US20230101768A1, “METHOD TO TREAT MANGANESE TOXICITY AND MANGANESE-INDUCED PA[…] HUMANS” (priority 2021, published 2023)
